Tests used:
Format in all cases: in vivo
Plutella xylostella = Plutella xylostella (diamond back moth) artificial diet test; conditions: 144 h, 200 ppm (concentration in well 18 ppm), L2 larvae, 6 days, larval mortality, growth regulation
Protocol: (§1) 24-well microtiter plate (MTP) with artificial diet was treated with test solutions at an application rate of 200 ppm (concentration in well 18 ppm) by pipetting. After drying, the MTP's were infested with L2 larvae (7-12 per well). After an incubation period of 6 days, samples were checked for larval mortality and growth regulation.

Spodoptera littoralis = Spodoptera littoralis (Egyptian cotton leafworm) leaf disc spray test; conditions: foliar, 72 h, 200 ppm spray on cotton leaf discs, L1 larvae, mortality, feeding behavior, growth regulation 3 days after treatment
Text: Cotton leaf discs were placed on agar in a 24-well microtiter plate and sprayed with test solutions at an application rate of 200 ppm. After drying, the leaf discs were infested with 5 L1 larvae. The samples were checked for mortality, feeding behavior, and growth regulation 3 days after treatment (DAT).

Heliothis virescens = Heliothis virescens (tobacco budworm) egg/artificial diet test; conditions: 96 h, 200 ppm (concentration in well 18 ppm), eggs 0-24 h old on artificial diet, 4 days, egg mortality, larval mortality, growth regulation
Protocol: Eggs (0-24 h old) were placed in 24-well microtiter plate on artificial diet and treated with test solutions at an application rate of 200 ppm (concentration in well 18 ppm) by pipetting. After an incubation period of 4 days, samples were checked for egg mortality, larval mortality, and growth regulation.

Diabrotica balteata = Diabrotica balteata (corn root worm) artificial diet test; conditions: 120 h, 200 ppm (concentration in well 18 ppm), L2 larvae, 5 days, larval mortality, growth regulation
Protocol: as §1, with “A 24-well” for “24-well”, “(6-10” for “(7-12”, “5” for “6”

Thrips tabaci = Thrips tabaci (onion thrips) leaf disc spray test; conditions: foliar, 168 h, 200 ppm spray on sunflower leaf discs, mixed ages, 7 days, mortality
Protocol: [The procedure below names another target; the source lists this target under the same test.] Sunflower leaf discs were placed on agar in a 24-well microtiter plate and sprayed with test solutions at an application rate of 200 ppm. After drying, the leaf discs were infested with an […] population of mixed ages. After an incubation period of 7 days, samples were checked for mortality.

Myzus persicae = Myzus persicae (green peach aphid), systemic test; conditions: 144 h, roots of infested pea seedlings in test solution, 6 days, mortality, special effects on the plant
Text: Myzus persicae (Green peach aphid), systemic test: Roots of pea seedlings, infested with an aphid population of mixed ages, are placed directly in the test solutions at an application rate of 12.5 ppm. 6 days after introduction, samples are checked for mortality and special effects on the plant. The following compounds gave at least 80% control of Myzus persicae: A3, B2, B3, B5, B6, B7, B8, B11, B12, C1, C2, C3,C4, C5, C6, C7, D1, E1, E2, G1, G3, G5, G6, H1, H5, H6, H9, H10, H11, H12, H13, H14, H18, H19, H20, H24, H25, and H26.

Tetranychus urticae = Tetranychus urticae (two-spotted spider mite) leaf disc spray test; conditions: foliar, 192 h, 200 ppm spray on bean leaf discs, mixed ages, 8 days, egg, larval and adult mortality
Text: Bean leaf discs on agar in 24-well microtiter plates were sprayed with test solutions at an application rate of 200 ppm. After drying, the leaf discs are infested with mite populations of mixed ages. 8 days later, discs are checked for egg mortality, larval mortality, and adult mortality.

Cc1cc(C2=NOC(c3cc(Cl)cc(Cl)c3)(C(F)(F)F)C2)ccc1C(=O)NC1CSSC1 (stereo not shown) [Compound A1, 4-[5-(3,5-Dichloro-phenyl)-5-trifluoromethyl-4,5-dihydro-isoxazol-3-yl]-N-[1,2]dithiolan-4-yl-2-methyl-benzamide]
≥ 80%: pest or weed control at 200 ppm (Plutella xylostella) | pest or weed control at 200 ppm (Spodoptera littoralis) | pest or weed control at 200 ppm (Heliothis virescens) | pest or weed control at 200 ppm (Diabrotica balteata) | pest or weed control at 200 ppm (Thrips tabaci)

CCN1CC(NC(=O)c2ccc(C3=NOC(c4cc(Cl)cc(Cl)c4)(C(F)(F)F)C3)cc2C)CO1 (stereo not shown) [Compound A3, 4-[5-(3,5-Dichloro-phenyl)-5-trifluoromethyl-4,5-dihydroisoxazol-3-yl]-N-(2-ethyl-isoxazolidin-4-yl)-2-methyl-benzamide]
≥ 80%: pest or weed control at 200 ppm (Plutella xylostella) | pest or weed control at 12.5 ppm (Myzus persicae) | pest or weed control at 200 ppm (Tetranychus urticae) | pest or weed control at 200 ppm (Spodoptera littoralis) | pest or weed control at 200 ppm (Heliothis virescens) | pest or weed control at 200 ppm (Diabrotica balteata) | pest or weed control at 200 ppm (Thrips tabaci)

Cc1cc(C2=NOC(c3cc(Cl)cc(Cl)c3)(C(F)(F)F)C2)ccc1C(=O)N[C@@H]1CONC1=O (stereo partly drawn) [Compound B1, 4-[5-(3,5-Dichloro-phenyl)-5-trifluoromethyl-4,5-dihydro-isoxazol-3-yl]-2-methyl-N-((R)-3-oxo-isoxazolidin-4-yl)-benzamide]
≥ 80%: pest or weed control at 200 ppm (Plutella xylostella) | pest or weed control at 200 ppm (Tetranychus urticae) | pest or weed control at 200 ppm (Spodoptera littoralis) | pest or weed control at 200 ppm (Heliothis virescens)

Cc1cc(C2=NOC(c3cc(Cl)cc(Cl)c3)(C(F)(F)F)C2)ccc1C(=O)N[C@@H]1CON(C)C1=O (stereo partly drawn) [Compound B2, 4-[5-(3,5-Dichloro-phenyl)-5-trifluoromethyl-4,5-dihydro-isoxazol-3-yl]-2-methyl-N-((R)-2-methyl-3-oxo-isoxazolidin-4-yl)-benzamide]
≥ 80%: pest or weed control at 200 ppm (Plutella xylostella) | pest or weed control at 12.5 ppm (Myzus persicae) | pest or weed control at 200 ppm (Tetranychus urticae) | pest or weed control at 200 ppm (Spodoptera littoralis) | pest or weed control at 200 ppm (Heliothis virescens) | pest or weed control at 200 ppm (Diabrotica balteata) | pest or weed control at 200 ppm (Thrips tabaci)

Cc1cc(C2=NOC(c3cc(Cl)cc(Cl)c3)(C(F)(F)F)C2)ccc1C(=O)N[C@@H]1CON(Cc2ccccc2)C1=O (stereo partly drawn) [Compound B4, 4-[5-(3,5-Dichloro-phenyl)-5-trifluoromethyl-4,5-dihydro-isoxazol-3-yl]-2-methyl-N-((R)-2-benzyl-3-oxo-isoxazolidin-4-yl)-benzamide]
≥ 80%: pest or weed control at 200 ppm (Plutella xylostella) | pest or weed control at 200 ppm (Tetranychus urticae) | pest or weed control at 200 ppm (Spodoptera littoralis) | pest or weed control at 200 ppm (Heliothis virescens) | pest or weed control at 200 ppm (Diabrotica balteata) | pest or weed control at 200 ppm (Thrips tabaci)

Cc1cc(C2=NOC(c3cc(Cl)cc(Cl)c3)(C(F)(F)F)C2)ccc1C(=O)N[C@@H]1CON(CCO)C1=O (stereo partly drawn) [Compound B9, 4-[5-(3,5-Dichloro-phenyl)-5-trifluoromethyl-4,5-dihydro-isoxazol-3-yl]-2-methyl-N-((R)-2-(2-hydroxy-ethyl)-3-oxo-isoxazolidin-4-yl)-benzamide]
≥ 80%: pest or weed control at 200 ppm (Plutella xylostella) | pest or weed control at 200 ppm (Tetranychus urticae) | pest or weed control at 200 ppm (Spodoptera littoralis) | pest or weed control at 200 ppm (Heliothis virescens) | pest or weed control at 200 ppm (Diabrotica balteata) | pest or weed control at 200 ppm (Thrips tabaci)

Cc1cc(C2=NOC(c3cc(Cl)cc(Cl)c3)(C(F)(F)F)C2)ccc1C(=O)N[C@@H]1CON(C2CSC2)C1=O (stereo partly drawn) [Compound B10, 4-[5-(3,5-Dichloro-phenyl)-5-trifluoromethyl-4,5-dihydro-isoxazol-3-yl]-2-methyl-N-((R)-2-(thietan-3-yl)-3-oxo-isoxazolidin-4-yl)-benzamide]
≥ 80%: pest or weed control at 200 ppm (Plutella xylostella) | pest or weed control at 200 ppm (Tetranychus urticae) | pest or weed control at 200 ppm (Spodoptera littoralis) | pest or weed control at 200 ppm (Heliothis virescens) | pest or weed control at 200 ppm (Diabrotica balteata) | pest or weed control at 200 ppm (Thrips tabaci)

Cc1cc(C2=NOC(c3cc(Cl)cc(Cl)c3)(C(F)(F)F)C2)ccc1C(=O)N[C@@H]1CON(C2CCC2)C1=O (stereo partly drawn) [Compound B11, 4-[5-(3,5-Dichloro-phenyl)-5-trifluoromethyl-4,5-dihydro-isoxazol-3-yl]-2-methyl-N-((R)-2-(cyclobutyl)-3-oxo-isoxazolidin-4-yl)-benzamide]
≥ 80%: pest or weed control at 200 ppm (Plutella xylostella) | pest or weed control at 12.5 ppm (Myzus persicae) | pest or weed control at 200 ppm (Tetranychus urticae) | pest or weed control at 200 ppm (Spodoptera littoralis) | pest or weed control at 200 ppm (Diabrotica balteata) | pest or weed control at 200 ppm (Thrips tabaci)

Cc1cc(C2=NOC(c3cc(Cl)cc(Cl)c3)(C(F)(F)F)C2)ccc1C(=O)NCC1CCN(Cc2ccccc2)O1 (stereo not shown) [Compound F1, N-(2-Benzyl-isoxazolidin-5-ylmethyl)-4-[5-(3,5-dichloro-phenyl)-5-trifluoromethyl-4,5-dihydro-isoxazol-3-yl]-2-methyl-benzamide]
≥ 80%: pest or weed control at 200 ppm (Plutella xylostella) | pest or weed control at 200 ppm (Tetranychus urticae) | pest or weed control at 200 ppm (Spodoptera littoralis) | pest or weed control at 200 ppm (Heliothis virescens) | pest or weed control at 200 ppm (Diabrotica balteata) | pest or weed control at 200 ppm (Thrips tabaci)

Cc1cc(C2=NOC(c3cc(Cl)cc(Cl)c3)(C(F)(F)F)C2)ccc1C(=O)NCC1CCN(C)O1 (stereo not shown) [Compound F2, N-(2-methyl-isoxazolidin-5-ylmethyl)-4-[5-(3,5-dichloro-phenyl)-5-trifluoromethyl-4,5-dihydro-isoxazol-3-yl]-2-methyl-benzamide]
≥ 80%: pest or weed control at 200 ppm (Plutella xylostella) | pest or weed control at 200 ppm (Tetranychus urticae) | pest or weed control at 200 ppm (Spodoptera littoralis) | pest or weed control at 200 ppm (Heliothis virescens) | pest or weed control at 200 ppm (Diabrotica balteata) | pest or weed control at 200 ppm (Thrips tabaci)

CCN1OC(CNC(=O)c2ccc(C3=NOC(c4cc(Cl)cc(Cl)c4)(C(F)(F)F)C3)cc2C)CC1=O (stereo not shown) [Compound F3, 4-[5-(3,5-Dichloro-phenyl)-5-trifluoromethyl-4,5-dihydro-isoxazol-3-yl]-2-methyl-N-[3-oxo-2-ethyl-isoxazolidin-5-ylmethyl]-benzamide]
≥ 80%: pest or weed control at 200 ppm (Plutella xylostella) | pest or weed control at 200 ppm (Tetranychus urticae) | pest or weed control at 200 ppm (Spodoptera littoralis) | pest or weed control at 200 ppm (Heliothis virescens) | pest or weed control at 200 ppm (Diabrotica balteata) | pest or weed control at 200 ppm (Thrips tabaci)

Cc1cc(C2=NOC(c3cc(Cl)cc(Cl)c3)(C(F)(F)F)C2)ccc1C(=O)NCC1CC(=O)N(CC(F)(F)F)O1 (stereo not shown) [Compound F4, 4-[5-(3,5-Dichloro-phenyl)-5-trifluoromethyl-4,5-dihydro-isoxazol-3-yl]-2-methyl-N-[3-oxo-2-(1,1,1-trifluoroethyl)-isoxazolidin-5-ylmethyl]-benzamide]
≥ 80%: pest or weed control at 200 ppm (Plutella xylostella) | pest or weed control at 200 ppm (Tetranychus urticae) | pest or weed control at 200 ppm (Spodoptera littoralis) | pest or weed control at 200 ppm (Heliothis virescens) | pest or weed control at 200 ppm (Diabrotica balteata) | pest or weed control at 200 ppm (Thrips tabaci)

Cc1cc(C2=NOC(c3cc(Cl)cc(Cl)c3)(C(F)(F)F)C2)ccc1C(=O)NCC1CO[S+]([O-])O1 (stereo not shown) [Compound F5, 4-[5-(3,5-dichlorophenyl)-5-(trifluoromethyl)-4H-isoxazol-3-yl]-2-methyl-N-[(2-oxido-1,3,2-dioxathiolan-2-ium-4-yl)methyl]benzamide]
≥ 80%: pest or weed control at 200 ppm (Plutella xylostella) | pest or weed control at 200 ppm (Tetranychus urticae) | pest or weed control at 200 ppm (Spodoptera littoralis) | pest or weed control at 200 ppm (Heliothis virescens) | pest or weed control at 200 ppm (Diabrotica balteata) | pest or weed control at 200 ppm (Thrips tabaci)

COc1ccc(N2CCC(CNC(=O)c3ccc(C4=NOC(c5cc(Cl)cc(Cl)c5)(C(F)(F)F)C4)cc3C)S2(=O)=O)cc1 (stereo not shown) [Compound F6, 4-[5-(3,5-Dichloro-phenyl)-5-trifluoromethyl-4,5-dihydro-isoxazol-3-yl]-N-[2-(4-methoxy-phenyl)-1,1-dioxo-1 lambda*6*-isothiazolidin-5-ylmethyl]-2-methyl-benzamide]
≥ 80%: pest or weed control at 200 ppm (Plutella xylostella) | pest or weed control at 200 ppm (Tetranychus urticae) | pest or weed control at 200 ppm (Spodoptera littoralis) | pest or weed control at 200 ppm (Heliothis virescens) | pest or weed control at 200 ppm (Diabrotica balteata)

From US10206400B2, “Insecticidal compounds based on isoxazoline derivatives” (Syngenta Crop Protection LLC, priority 2009, dated 2019)
